Assays:
[1] = system: CFP-DH4 (A1cOX); assay: HbA1c detection reaction completed with excess A1cOX (Example 4); type: biochemical; details: 0.04% (w/v) compound, 5.3 mg/ml CFP-DH4 (excess), blood cells 10.4% HbA1c, pH 6.5, 37° C.; for ΔA9 min: change in A694-A751 9 minutes after mixing sample with first reagent; for ΔA10 min: change in A694-A751 10 minutes after mixing sample with first reagent, defined as ΔA100%
Procedure: In this Example, the amount of change in absorbance when an excess amount of A1cOX is used and HbA1c detection reaction was completed is determined.
A reagent for HbA1c measurement having the following composition was prepared, and the measurement of HbA1c was carried out using Bio Majesty JCA-BMI650 (manufactured by JEOL Ltd.).
Blood cells (10.4% HbA1c (NGSP value))
30 mM MOPS-NaOH buffer solution, pH 6.5
0.2% (w/v) n-dodecyl-β-D-maltoside (manufactured by Dojindo Laboratories)
(§1) 10 U/ml peroxidase PEO-301 (Toyobo Co., Ltd.)
(§2) 0.023 mM 10-(carboxymethylaminocarbonyl)-3,7-bis(dimethylamino)phenothiazine sodium (DA-67, manufactured by Wako Pure Chemical Industries, Ltd.)
0.04% (w/v) of the compound of Comparative Example 2 (Wako Pure Chemical Industries, Ltd.), any one compound of the present invention (all from Tokyo Chemical Industry Co., Ltd. except for Acid Yellow 34 from MP Biomedicals, LLC), or compound-free (Comparative Example 1) ion-exchange water as shown in Table 1 (Second Reagent-A) 10 mM MOPS-NaOH buffer solution, pH 6.5 5.3 mg/ml CFP-DH4 (A cOX)
8 μl of the sample diluted 51-fold with ion-exchange water was added to 96 μl of the first reagent-A, and the mixture was incubated at 37° C. for 5 minutes. Then, 24 μl of the second reagent-A was added thereto, and the quantitative reaction of hydrogen peroxide resulting from the oxidation of the β-chain amino terminus of HbA1c was allowed to progress at 37° C. for 5 minutes. The absorbance (A694 and A751) of the reaction solution for light at wavelengths of 694 nm and 751 nm was measured over time for 10 minutes after the mixing of the diluted sample with the first reagent-A to determine the value subtracting of A751 from A694, i.e., the value A694/751. Subsequently, ΔA was calculated by subtracting, from A694/751, the value of (104/128) times A694/751 4.8 minutes after mixing the diluted sample with the first reagent-A. Incidentally, 4.8 minutes after the mixing of the diluted sample with the first reagent-A represents the time immediately before the addition of the second reagent-A. ΔA 9 minutes and 10 minutes after the mixing of the diluted sample with the first reagent (ΔA9min and ΔA10min) are shown in Table 1.
In other words, it can be recognized that the quantitative reaction of HbA1c, i.e., the quantitative reaction of hydrogen peroxide resulting from the oxidation of HbA1c, was completed in 10 minutes after the mixing of the diluted sample with the first reagent-A. Accordingly, in Examples 4 and 5, ΔA10min in each Comparative Example or the present invention was defined as ΔA when 100% of the quantitative reaction of HbA1c progressed under each condition (ΔA100%).

[2] = system: fructosyl peptide oxidase (FPOX-CET); assay: Acceleration of fructosyl valyl histidine detection reaction with small amount of fructosyl peptide oxidase (Example 7); type: biochemical; details: 0.04% (w/v) compound, 0.48 U/ml FPOX-CET; for effect of accelerating the fructosyl valyl histidine detection reaction: versus not added; for Degree of progression of reaction (%) after 7.5 minutes / Degree of progression of reaction (%) after 10 minutes: fructosyl valyl histidine detection reaction, ΔA/ΔA100%; for Degree of progression of reaction (%) after 7.5 minutes: 2.5 minutes after addition of second reagent, not added: 57; for Degree of progression of reaction (%) after 10 minutes: 5 minutes after addition of second reagent, not added: 81
Procedure: Next, in this Example, the degree of acceleration of fructosyl valyl histidine detection reaction by the compound of the present invention was determined using a small amount of fructosyl peptide oxidase.
A reagent for fructosyl valyl histidine measurement having the following composition was prepared, and the measurement of fructosyl valyl histidine was carried out using Bio Majesty JCA-BM 1650 (manufactured by JEOL Ltd.).
32 μM fructosyl valyl histidine (manufactured by Kikkoman Biochemifa Company)
30 mM MOPS-NaOH buffer solution, pH 7.0
0.2% (v/v) Triton X-100 (manufactured by Wako Pure Chemical Industries, Ltd.)
as §1, §2
0.04% (w/v) of the compound of Comparative Example 2, any one compound of the present invention, or compound-free (Comparative Example 1) ion-exchange water as shown in Table 1
10 mM MOPS-NaOH buffer solution, pH 7.0
0.48 U/ml FPOX-CET (manufactured by Kikkoman Biochemifa Company)
8 μl of the sample was added to 96 μl of the first reagent-B, and the mixture was incubated at 37° C. for 5 minutes. Then, 24 μl of the second reagent-D was added thereto, and the quantitative reaction of hydrogen peroxide resulting from the oxidation of fructosyl valyl histidine was allowed to progress at 37° C. for 5 minutes. The absorbance (A694 and A751) of the reaction solution for light at wavelengths of 694 nm and 751 nm was measured over time for 10 minutes after the mixing of the sample with the first reagent-B to determine the value of subtraction of A751 from A694. i.e., the value A694/751. Subsequently, ΔA was calculated by subtracting, from A694/751, the value of (104/128) times A694/751 4.8 minutes after the mixing of the sample with the first reagent-B. Incidentally, 5 minutes after the mixing of the sample with the first reagent-B represents the time immediately before the addition of the second reagent-D.
Next, ΔA calculated in this Example was divided by […] defined in Example 6 to calculate the degree of progression of fructosyl valyl histidine detection reaction. The degree of progression of fructosyl valyl histidine detection reaction 7.5 and 10 minutes after the mixing of the sample with the first reagent-B (in other words, 2.5 and 5 minutes after the addition of the second reagent-D) is shown in Table 4.

Molecule	ΔA9 min [1]	ΔA10 min [1]	effect of accelerating the fructosyl valyl histidine detection reaction [2]	Degree of progression of reaction (%) after 7.5 minutes [2] [%]	Degree of progression of reaction (%) after 10 minutes [2] [%]
Cc1nn(-c2cc(S(=O)(=O)[O-])ccc2Cl)c(O)c1N=Nc1ccccc1.[Na+] [Acid Yellow 34]	0.011	0.011	effect of accelerating the fructosyl valyl histidine detection reaction	62	86
Acid Red 151	0.014	0.014			
O=C([O-])c1cc(N=Nc2cccc([N+](=O)[O-])c2)ccc1O.[Na+] [Alizarin Yellow GG]	0.016	0.016			
O=S(=O)([O-])c1cccc(N=Nc2ccc(Nc3ccccc3)cc2)c1.[Na+] [Acid Yellow 36]	0.011	0.011			
COc1cc(N=Nc2cccc(S(=O)(=O)[O-])c2)ccc1NC(=O)Nc1ccc(N=Nc2ccc(O)c(C(=O)[O-])c2)cc1.[Na+].[Na+] [Direct Yellow 44]	0.017	0.017	effect of accelerating the fructosyl valyl histidine detection reaction	66	88
O=C(O)c1cc(N=Nc2ccc3cc(S(=O)(=O)O)ccc3c2)ccc1O.[Na] [Chrome Yellow]	0.024	0.024	effect of accelerating the fructosyl valyl histidine detection reaction	62	86
O=C([O-])c1cc(N=Nc2ccc([N+](=O)[O-])cc2)ccc1O.[Na+] [Mordant Orange 1]	0.016	0.016			
Xylene Fast Yellow 2G	0.015	0.015	effect of accelerating the fructosyl valyl histidine detection reaction	63	96

Reference: US11384381B2, “Reaction accelerating agent” (Kikkoman Corporation, priority 2016, dated 2022)
